Test results taken from US20240393292A1, “ALLERGY ANTIGEN AND EPITOPE THEREOF” (HOYU CO., LTD., priority 2019, published 2024).

Test system: IgE antibodies from patients
Experiment: Wheat epitope mapping (2): overlapping 10-amino-acid peptide fragments shifted by one amino acid;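 also: key of grades: preferably = shorter partial sequence still acting as epitope; more preferably = sequence improving IgE binding; key = particularly important sequence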
Type: binding, human
In short: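 Cellulose-bound 10-mer peptides offset by one residue were probed with patient serum IgE and detected by chemiluminescence. Secondary-antibody-only signals were subtracted per peptide. Residual binding was expressed as % of the parent overlapping peptide, scored as none (<30%), poor (30–<50%), somewhat poor (50–<70%) or retained (≥70%).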

[1] = serum of patient G6 (adult, general immediate type allergy to wheat)
[2] = serum of patient G7 (adult, general immediate type allergy to wheat)
[3] = serum of patient G5 (adult, general immediate type allergy to wheat)

## 1819 (SGKELEALPK; REGION 1..10: note = epitope) [compound 1819]
Serum of patient P33 (WDEIA)
  epitope sequence binding to IgE antibody, rank (Key/Preferably/More preferably): Key

## 1820 (PKFLK; REGION 1..5: note = epitope) [compound 1820]
Serum of patient P33 (WDEIA)
  epitope sequence binding to IgE antibody, rank (Key/Preferably/More preferably): Key

## 1821 (SGKELEALPK; REGION 1..10: note = epitope) [compound 1821]
Serum of patient P34 (WDEIA)
  epitope sequence binding to IgE antibody, rank (Key/Preferably/More preferably): Key

## 1822 (SGKELEALPK; REGION 1..10: note = epitope) [compound 1822]
Serum of patient P35 (WDEIA)
  epitope sequence binding to IgE antibody, rank (Key/Preferably/More preferably): Key

## 1823 (LPKFL; REGION 1..5: note = epitope) [compound 1823]
Serum of patient P35 (WDEIA)
  epitope sequence binding to IgE antibody, rank (Key/Preferably/More preferably): Key

## 1824 (LPKFLK; REGION 1..6: note = epitope) [compound 1824]
Serum of patient P36 (WDEIA)
  epitope sequence binding to IgE antibody, rank (Key/Preferably/More preferably): Key

## 1825 (LPKF; REGION 1..4: note = epitope) [compound 1825]
Serum of patient P52 (child, general immediate type allergy to wheat)
  epitope sequence binding to IgE antibody, rank (Key/Preferably/More preferably): Key

## 1826 (PKFL; REGION 1..4: note = epitope) [compound 1826]
Serum of patient G1 (adult, general immediate type allergy to wheat)
  epitope sequence binding to IgE antibody, rank (Key/Preferably/More preferably): Key

## 1828 (LEALPKFLK; REGION 1..9: note = epitope) [compound 1828]
Serum of patient G4 (adult, general immediate type allergy to wheat)
  epitope sequence binding to IgE antibody, rank (Key/Preferably/More preferably): Key

## 1830 (LPKFL; REGION 1..5: note = epitope) [compound 1830]
[1]
  epitope sequence binding to IgE antibody, rank (Key/Preferably/More preferably): Key

## 1832 (KELE; REGION 1..4: note = epitope) [compound 1832]
[2]
  epitope sequence binding to IgE antibody, rank (Key/Preferably/More preferably): Key

## 1833 (KFLKN; REGION 1..5: note = epitope) [compound 1833]
[2]
  epitope sequence binding to IgE antibody, rank (Key/Preferably/More preferably): Key

## 1837 (VRTLQRT; REGION 1..7: note = epitope) [compound 1837]
Serum of patient P3 (WDEIA)
  epitope sequence binding to IgE antibody, rank (Key/Preferably/More preferably): Preferably

## 1838 (RTLQ; REGION 1..4: note = epitope) [compound 1838]
Serum of patient P3 (WDEIA)
  epitope sequence binding to IgE antibody, rank (Key/Preferably/More preferably): Key

## 1839 (TVRTLQR; REGION 1..7: note = epitope) [compound 1839]
Serum of patient P5 (WDEIA)
  epitope sequence binding to IgE antibody, rank (Key/Preferably/More preferably): Preferably

## 1840 (RTLQ; REGION 1..4: note = epitope) [compound 1840]
Serum of patient P5 (WDEIA)
  epitope sequence binding to IgE antibody, rank (Key/Preferably/More preferably): Key

## 1841 (YTVRTLQ; REGION 1..7: note = epitope) [compound 1841]
Serum of patient P8 (WDEIA)
  epitope sequence binding to IgE antibody, rank (Key/Preferably/More preferably): Preferably

## 1842 (TVRTLQ; REGION 1..6: note = epitope) [compound 1842]
Serum of patient P8 (WDEIA)
  epitope sequence binding to IgE antibody, rank (Key/Preferably/More preferably): Key

## 1843 (TVRTLQR; REGION 1..7: note = epitope) [compound 1843]
Serum of patient P9 (WDEIA)
  epitope sequence binding to IgE antibody, rank (Key/Preferably/More preferably): Preferably

## 1844 (TVRTLQ; REGION 1..6: note = epitope) [compound 1844]
Serum of patient P9 (WDEIA)
  epitope sequence binding to IgE antibody, rank (Key/Preferably/More preferably): Key

## 1845 (YTVRTLQR; REGION 1..8: note = epitope) [compound 1845]
Serum of patient P12 (WDEIA)
  epitope sequence binding to IgE antibody, rank (Key/Preferably/More preferably): Preferably

## 1846 (TVRTLQR; REGION 1..7: note = epitope) [compound 1846]
Serum of patient P12 (WDEIA)
  epitope sequence binding to IgE antibody, rank (Key/Preferably/More preferably): Key

## 1848 (YTVRTLQRT; REGION 1..9: note = epitope) [compound 1848]
Serum of patient P16 (WDEIA)
  epitope sequence binding to IgE antibody, rank (Key/Preferably/More preferably): More preferably

## 1849 (TVRTLQR; REGION 1..7: note = epitope) [compound 1849]
Serum of patient P16 (WDEIA)
  epitope sequence binding to IgE antibody, rank (Key/Preferably/More preferably): Preferably

## 1850 (VRTLQ; REGION 1..5: note = epitope) [compound 1850]
Serum of patient P16 (WDEIA)
  epitope sequence binding to IgE antibody, rank (Key/Preferably/More preferably): Key

## 1852 (YTVRTLQRT; REGION 1..9: note = epitope) [compound 1852]
Serum of patient P17 (WDEIA)
  epitope sequence binding to IgE antibody, rank (Key/Preferably/More preferably): More preferably

## 1853 (TVRTLQR; REGION 1..7: note = epitope) [compound 1853]
Serum of patient P17 (WDEIA)
  epitope sequence binding to IgE antibody, rank (Key/Preferably/More preferably): Preferably

## 1854 (RTLQR; REGION 1..5: note = epitope) [compound 1854]
Serum of patient P17 (WDEIA)
  epitope sequence binding to IgE antibody, rank (Key/Preferably/More preferably): Key

## 1856 (YTVRTLQRT; REGION 1..9: note = epitope) [compound 1856]
Serum of patient P18 (WDEIA)
  epitope sequence binding to IgE antibody, rank (Key/Preferably/More preferably): More preferably

## 1857 (TVRTLQR; REGION 1..7: note = epitope) [compound 1857]
Serum of patient P18 (WDEIA)
  epitope sequence binding to IgE antibody, rank (Key/Preferably/More preferably): Preferably

## 1858 (RTLQ; REGION 1..4: note = epitope) [compound 1858]
Serum of patient P18 (WDEIA)
  epitope sequence binding to IgE antibody, rank (Key/Preferably/More preferably): Key

## 1859 (YTVRTLQR; REGION 1..8: note = epitope) [compound 1859]
Serum of patient P19 (WDEIA)
  epitope sequence binding to IgE antibody, rank (Key/Preferably/More preferably): Preferably

## 1860 (TVRTLQ; REGION 1..6: note = epitope) [compound 1860]
Serum of patient P19 (WDEIA)
  epitope sequence binding to IgE antibody, rank (Key/Preferably/More preferably): Key

## 1861 (TVRTLQRT; REGION 1..8: note = epitope) [compound 1861]
Serum of patient P24 (WDEIA)
  epitope sequence binding to IgE antibody, rank (Key/Preferably/More preferably): Preferably

## 1862 (VRTLQ; REGION 1..5: note = epitope) [compound 1862]
Serum of patient P24 (WDEIA)
  epitope sequence binding to IgE antibody, rank (Key/Preferably/More preferably): Key

## 1863 (VIAEYTVRTL; REGION 1..10: note = epitope) [compound 1863]
Serum of patient P25 (WDEIA)
  epitope sequence binding to IgE antibody, rank (Key/Preferably/More preferably): Key

## 1864 (TVRTLQR; REGION 1..7: note = epitope) [compound 1864]
Serum of patient P25 (WDEIA)
  epitope sequence binding to IgE antibody, rank (Key/Preferably/More preferably): Key

## 1865 (TVRTLQR; REGION 1..7: note = epitope) [compound 1865]
Serum of patient P26 (WDEIA)
  epitope sequence binding to IgE antibody, rank (Key/Preferably/More preferably): Key

## 1866 (TVRTLQR; REGION 1..7: note = epitope) [compound 1866]
Serum of patient P27 (WDEIA)
  epitope sequence binding to IgE antibody, rank (Key/Preferably/More preferably): Key

## 1867 (TVRTLQR; REGION 1..7: note = epitope) [compound 1867]
Serum of patient P28 (WDEIA)
  epitope sequence binding to IgE antibody, rank (Key/Preferably/More preferably): Preferably

## 1868 (TVRTLQ; REGION 1..6: note = epitope) [compound 1868]
Serum of patient P28 (WDEIA)
  epitope sequence binding to IgE antibody, rank (Key/Preferably/More preferably): Key

## 1869 (YTVRTLQRT; REGION 1..9: note = epitope) [compound 1869]
Serum of patient P29 (WDEIA)
  epitope sequence binding to IgE antibody, rank (Key/Preferably/More preferably): More preferably

## 1870 (YTVRTLQR; REGION 1..8: note = epitope) [compound 1870]
Serum of patient P29 (WDEIA)
  epitope sequence binding to IgE antibody, rank (Key/Preferably/More preferably): Preferably

## 1871 (VRTLQR; REGION 1..6: note = epitope) [compound 1871]
Serum of patient P29 (WDEIA)
  epitope sequence binding to IgE antibody, rank (Key/Preferably/More preferably): Key

## 1872 (YTVRTLQRT; REGION 1..9: note = epitope) [compound 1872]
Serum of patient P30 (WDEIA)
  epitope sequence binding to IgE antibody, rank (Key/Preferably/More preferably): Preferably

## 1873 (TVRTLQR; REGION 1..7: note = epitope) [compound 1873]
Serum of patient P30 (WDEIA)
  epitope sequence binding to IgE antibody, rank (Key/Preferably/More preferably): Key

## 1875 (TVRTLQRTV; REGION 1..9: note = epitope) [compound 1875]
Serum of patient P31 (WDEIA)
  epitope sequence binding to IgE antibody, rank (Key/Preferably/More preferably): More preferably

## 1876 (VRTLQRT; REGION 1..7: note = epitope) [compound 1876]
Serum of patient P31 (WDEIA)
  epitope sequence binding to IgE antibody, rank (Key/Preferably/More preferably): Preferably

## 1877 (TLQR; REGION 1..4: note = epitope) [compound 1877]
Serum of patient P31 (WDEIA)
  epitope sequence binding to IgE antibody, rank (Key/Preferably/More preferably): Key

## 1878 (TVRTLQRT; REGION 1..8: note = epitope) [compound 1878]
Serum of patient P32 (WDEIA)
  epitope sequence binding to IgE antibody, rank (Key/Preferably/More preferably): Preferably

## 1879 (TVRTLQ; REGION 1..6: note = epitope) [compound 1879]
Serum of patient P32 (WDEIA)
  epitope sequence binding to IgE antibody, rank (Key/Preferably/More preferably): Key

## 1880 (TVRTLQRT; REGION 1..8: note = epitope) [compound 1880]
Serum of patient P33 (WDEIA)
  epitope sequence binding to IgE antibody, rank (Key/Preferably/More preferably): Preferably

## 1881 (TVRTLQR; REGION 1..7: note = epitope) [compound 1881]
Serum of patient P33 (WDEIA)
  epitope sequence binding to IgE antibody, rank (Key/Preferably/More preferably): Key

## 1882 (TVRTLQRT; REGION 1..8: note = epitope) [compound 1882]
Serum of patient P34 (WDEIA)
  epitope sequence binding to IgE antibody, rank (Key/Preferably/More preferably): Preferably

## 1883 (VRTLQ; REGION 1..5: note = epitope) [compound 1883]
Serum of patient P34 (WDEIA)
  epitope sequence binding to IgE antibody, rank (Key/Preferably/More preferably): Key

## 1884 (TVRTLQRT; REGION 1..8: note = epitope) [compound 1884]
Serum of patient P35 (WDEIA)
  epitope sequence binding to IgE antibody, rank (Key/Preferably/More preferably): Preferably

## 1885 (RTLQ; REGION 1..4: note = epitope) [compound 1885]
Serum of patient P35 (WDEIA)
  epitope sequence binding to IgE antibody, rank (Key/Preferably/More preferably): Key

## 1886 (TVRTLQRT; REGION 1..8: note = epitope) [compound 1886]
Serum of patient P36 (WDEIA)
  epitope sequence binding to IgE antibody, rank (Key/Preferably/More preferably): Key

## 1887 (YTVRTLQRTV; REGION 1..10: note = epitope) [compound 1887]
[3]
  epitope sequence binding to IgE antibody, rank (Key/Preferably/More preferably): Preferably

## 1888 (TVRTLQRT; REGION 1..8: note = epitope) [compound 1888]
[3]
  epitope sequence binding to IgE antibody, rank (Key/Preferably/More preferably): Key

## 1889 (TVRTLQR; REGION 1..7: note = epitope) [compound 1889]
[1]
  epitope sequence binding to IgE antibody, rank (Key/Preferably/More preferably): Preferably

## 1890 (RTLQ; REGION 1..4: note = epitope) [compound 1890]
[1]
  epitope sequence binding to IgE antibody, rank (Key/Preferably/More preferably): Key
